# Measured values: patent publication US20260235623A1, “EFFECT INDUCED BY A SODIUM-GLUCOSE COTRANSPORTER INHIBITOR (SGLTi) IN A SUBJECT SUFFERING FROM A CARDIOVASCULAR DISEASE” (Roche Diagnostics Operations, Inc., priority 2023, published 2026)
# Where two headings read alike, the source gives them in different places.
# Tests used:
# [1] = test system: FABP3; details: for amount of FABP3 higher compared to baseline: 3 months (V2)
# Source text: (§1) A total of 100 patients with stable chronic HFrEF participating in a prospective registry at the heart failure outpatient clinic at the Medical University of Vienna, which has been imputed with all clinically relevant data, are included in the present study. The inclusion criteria of the registry are documented chronic HFrEF, an age of at least 18 years and stable heart failure related medical therapy in the last 3 months. Inclusion criteria for this study is the participation in the registry, and the absence of any exclusion criteria avoiding the prescription of SGLT-2 inhibitor (Dapagliflozin). Visits at the outpatient clinic are conducted at baseline (visit 0), at week 4 after SGLT-2 inhibitor therapy initiation (visit 1), after 3 month (visit 2), after 6 months (visit 3), and every 6 months thereafter.
# (§2) Blood and urine samples are drawn from a peripheral vein and collected at baseline prior to administration of the SGLT-2 inhibitor and repeated at every regularly scheduled study-visit. Samples are used for (1.) routine laboratory analysis and (2.) biobank storage.
# (§3) Blood for the biobank is immediately centrifuged and plasma samples are stored at-80° C. for future analysis. The plasma samples and urine samples are stored in the central “biobank” facility of the Department of Laboratory Medicine at the Medical University of Vienna.
# (§4) FABP3 and additional cardiac biomarkers N-terminal B-type natriuretic peptide (NT-proBNP) and GDF-15 are measured in plasma using the Elecsys Systems (Roche Diagnostics, Mannheim, Germany).
# [2] = test system: NT-proBNP; details: for median NT-proBNP concentration: baseline median 1396.30; for change of amount of NT-proBNP before and after initiation: before and after SGLT2i initiation
# Source text: as §1, §2, §3, §4
# [3] = test system: GDF-15; details: baseline median 2439.34
# Source text: as §1, §2, §3, §4
# [4] = test system: FABP3/GDF-15; details: for median FABP3/GDF-15 ratio: FABP3 in ng/ml, GDF-15 in pg/mL, baseline median ratio 0.017
# Source text: as §1, §2, §3, §4
# [5] = test system: FABP3/NT-proBNP; details: for median FABP3/NT-proBNP ratio: FABP3 in ng/ml, NT-proBNP in pg/mL, baseline median ratio 0.026
# Source text: as §1, §2, §3, §4
# [6] = after 6 months (V3), vs. baseline
# [7] = V1: week 4 after SGLT2i therapy initiation
smiles,measurement,setting,value
"CCOc1ccc(Cc2cc([C@@H]3O[C@H](CO)[C@@H](O)[C@H](O)[C@H]3O)ccc2Cl)cc1 [SGLT2i, Dapagliflozin]",relative increase of FABP3 concentration alone,[1]; [6],19%
same,change in plasma concentration of FABP3 after therapy initiation,[1]; chronic HFrEF patients,increase in plasma concentration of FABP3
same,median FABP3 plasma concentration,"[1]; chronic HFrEF patients, V1: week 4 after SGLT2i therapy initiation, baseline median 37.82",40.86 ng/mL
same,median FABP3 plasma concentration,"[1]; chronic HFrEF patients, V2: 3 months, baseline median 37.82",45.14 ng/mL
same,median FABP3 plasma concentration,"[1]; chronic HFrEF patients, V3: 6 months, baseline median 37.82",44.36 ng/mL
same,FABP3 plasma concentration,"[1]; chronic HFrEF patients, V4: 12 months, baseline median 37.82",44.47 ng/mL
same,amount of FABP3 higher compared to baseline,[1]; patient subgroup with high baseline FABP3 (above 37.8 ng/ml),about 14%
same,amount of FABP3 higher compared to baseline,[1]; patient subgroup with low baseline FABP3 (below 37.8 ng/ml),about 27%
same,median FABP3 concentration,"[1]; patients with high baseline FABP3 (above 37.8 ng/ml), V1: week 4, baseline median 47.97",53.56 ng/mL
same,median FABP3 concentration,"[1]; patients with high baseline FABP3 (above 37.8 ng/ml), V2: 3 months, baseline median 47.97",54.73 ng/mL
same,median FABP3 concentration,"[1]; patients with high baseline FABP3 (above 37.8 ng/ml), V3: 6 months, baseline median 47.97",54.51 ng/mL
same,FABP3 concentration,"[1]; patients with high baseline FABP3 (above 37.8 ng/ml), V4: 12 months, baseline median 47.97",53.23 ng/mL
same,median FABP3 concentration,"[1]; patients with low baseline FABP3 (below 37.8 ng/mL), V1: week 4, baseline median 29.05",31.41 ng/mL
same,median FABP3 concentration,"[1]; patients with low baseline FABP3 (below 37.8 ng/mL), V2: 3 months, baseline median 29.05",38.86 ng/mL
same,median FABP3 concentration,"[1]; patients with low baseline FABP3 (below 37.8 ng/mL), V3: 6 months, baseline median 29.05",36.41 ng/mL
same,FABP3 concentration,"[1]; patients with low baseline FABP3 (below 37.8 ng/mL), V4: 12 months, baseline median 29.05",36.76 ng/mL
same,time for which the FABP3 increase is apparent,[1]; under SGLTi treatment,≥ 12 months
same,median NT-proBNP concentration,[2]; [7],1115.68 pg/mL
same,median NT-proBNP concentration,[2]; V2: 3 months,1191.95 pg/mL
same,median NT-proBNP concentration,[2]; V3: 6 months,889.21 pg/mL
same,median NT-proBNP concentration,[2]; V4: 12 months,1172.84 pg/mL
same,change of amount of NT-proBNP before and after initiation,[2],does not correlate
same,change of amount of NT-proBNP before and after initiation,[2]; listed as SGLTi,does not significantly change
same,median GDF-15 concentration,[3]; [7],2657.16 pg/mL
same,median GDF-15 concentration,[3]; V2: 3 months,3036.18 pg/mL
same,median GDF-15 concentration,[3]; V3: 6 months,2414.01 pg/mL
same,median GDF-15 concentration,[3]; V4: 12 months,2039.85 pg/mL
same,median FABP3/GDF-15 ratio,[4]; V1: week 4,0.016
same,median FABP3/GDF-15 ratio,[4]; V2: 3 months,0.016
same,median FABP3/GDF-15 ratio,[4]; V3: 6 months,0.016
same,median FABP3/GDF-15 ratio,[4]; V4: 12 months,0.019
same,change of FABP3/GDF-15 ratio after initiation,[4]; after SGLT2i initiation,remains stable
same,peak of relative increase of FABP3/GDF-15 ratio,"[4]; at 12 months (V4), vs. baseline",12%
same,median FABP3/NT-proBNP ratio,[5]; V1: week 4,0.032
same,median FABP3/NT-proBNP ratio,[5]; V2: 3 months,0.039
same,median FABP3/NT-proBNP ratio,[5]; V3: 6 months,0.046
same,median FABP3/NT-proBNP ratio,[5]; V4: 12 months,0.033
same,peak of relative increase of FABP3/NT-proBNP ratio,[5]; [6],77%
same,change of FABP3/NT-proBNP ratio after initiation,[5]; over time after SGLT2i initiation,increases over time
